Experimental data as given in PMC3136501 (PLoS ONE, 2011).

Molecular target: T1, human OCT3 (Homo sapiens, UniProt O75751)
T1 sequence (O75751 1-556): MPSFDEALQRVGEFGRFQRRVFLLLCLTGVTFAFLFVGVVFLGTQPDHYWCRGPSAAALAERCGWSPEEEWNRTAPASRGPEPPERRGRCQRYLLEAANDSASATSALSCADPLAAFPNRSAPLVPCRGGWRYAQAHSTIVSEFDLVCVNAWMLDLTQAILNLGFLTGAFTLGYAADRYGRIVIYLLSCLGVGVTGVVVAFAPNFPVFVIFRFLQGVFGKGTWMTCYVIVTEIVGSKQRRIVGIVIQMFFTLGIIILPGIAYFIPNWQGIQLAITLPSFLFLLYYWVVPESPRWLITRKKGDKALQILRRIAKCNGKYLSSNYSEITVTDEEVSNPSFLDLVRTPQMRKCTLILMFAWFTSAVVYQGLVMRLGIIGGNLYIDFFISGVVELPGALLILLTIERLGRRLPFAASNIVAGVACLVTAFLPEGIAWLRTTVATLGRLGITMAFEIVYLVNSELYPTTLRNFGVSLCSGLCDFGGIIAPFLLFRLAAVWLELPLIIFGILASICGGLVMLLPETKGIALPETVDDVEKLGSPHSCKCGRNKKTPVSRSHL
Assay: Inhibition of OCT3-mediated metformin uptake in stably transfected HEK cells
Assay type: cell-based
Conditions: for IC50: 5 µM [14C]metformin uptake, 5 min, HEK-OCT3, means ± SE of 3 experiments; for OCT3-mediated metformin uptake at low PPI concentrations: low concentrations of PPI, Figure 3
Experimental: SLC22A1 cDNA and SLC22A2 cDNA had been PCR-amplified from human liver and kidney, respectively, as reported elsewhere and cDNAs were provided by the German Cancer Research Center; the study and the use of the tissue were approved by the institutional review board of the German Cancer Center, Heidelberg, Germany. Since the data were analyzed anonymously, and tissues were left-over samples from diagnostic procedures, written informed consent had not been required and obtained. IRB specifically waived the need for consent due to the fact the human tissue material used was fully anonymized. SLC22A3 cDNA was amplified using SLC22A3-TrueClone (Origene, Rockville, MD, USA) as the template. SLC22A1 cDNA was cloned into the expression vector pcDNA3.1/Hygro(-) (Invitrogen, Darmstadt, Germany), SLC22A2 and SLC22A3 cDNA into pcDNA3.1(+) (Invitrogen). Each transporter cDNA was sequenced and the respective deduced amino acid sequence was identical to the published reference protein sequence (OCT1: NP_003048.1; OCT2: NP_003049.2; OCT3: NP_068812.1). The human embryonic kidney 293 (HEK) cell line was obtained from the American Type Culture Collection. HEK cells were grown in DMEM (Sigma) supplemented with 10% fetal bovine serum (Sigma), 100 U⋅ml^−1 penicillin, and 100 µg⋅ml^−1 streptomycin (Lonza, Basel, Switzerland) at 37°C and 5% CO2. HEK cells were transfected with Metafectene Pro (Biontex, München, Germany). Selection of clones stably expressing OCT1 was carried out with 0.5 mg⋅ml^−1 hygromycin as described. Similarly, clones stably expressing OCT2 or OCT3 were selected with 800 µg⋅ml^−1 G418. HEK cells stably transfected with the empty pcDNA3.1(+) vector served as controls (HEK-Co). Cells were incubated with 5 mM butyrate 24 h before use to increase protein levels of recombinant transporters.
HEK cells (400000 cells/well) were seeded into 24-well cell culture plates (Greiner Bio-One, Frickenhausen, Germany) and grown for 48 h. Cell adherence was improved by coating plates with poly-L-lysine (Biochrom AG, Berlin, Germany) prior to cell plating. All uptake studies were carried out at 37°C as described. For uptake measurements, cells were firstly washed with uptake buffer (145 mM NaCl, 5 mM hydroxyethylpiperazine ethanesulfonic acid, 3 mM KCl, 1 mM CaCl2, 0.5 mM MgCl2, 5 mM glucose, pH 7.4, [46]) prewarmed to 37°C. […] Uptake was stopped at indicated time points by removing the uptake buffer and immediately washing the cells 3 times with ice-cold uptake buffer. Cells were lysed with 0.2% SDS and intracellular radioactivity was determined by liquid scintillation counting (Hidex 300SL TDCR liquid scintillation counter, Turku, Finland). For measuring inhibition of OCT-mediated metformin uptake by PPIs, 5 µM [^14C]metformin uptake was measured in the presence of different PPI concentrations and stopped after 5 min (OCT1, OCT3) or 5 sec (OCT2).
OCT-specific metformin uptake was obtained by subtracting metformin uptake in the presence of 2 mM unlabeled 1-methyl-4-phenylpyridinium (MPP) from that in its absence. […] OCT-specific metformin uptake in the presence of a PPI was then calculated as percentage of that in the absence of the respective PPI (100% uninhibited). For each PPI concentration, 3 individual experiments each with 3 parallel measurements were performed. Apparent IC50 values for inhibition of metformin uptake by PPIs were calculated for each individual experiment by fitting the values to the Hill equation using GraphPad Prism 4 (GraphPad Software Inc., La Jolla, CA, USA). Values in Table 1 are given as the means ± SE of the 3 individual experiments.

SMILES | IC50 [µM] | Metformin uptake by HEK-OCT3 in the presence of MPP (5 µM metformin, 2 mM unlabeled MPP) | OCT3-mediated metformin uptake at low PPI concentrations
Cc1c(OCC(F)(F)F)ccnc1C[S+]([O-])c1nc2ccccc2[nH]1 (stereo not drawn) [Lansoprazole] | 3.1 ± 1.3 |  | 
C[n+]1ccc(-c2ccccc2)cc1 [MPP, 1-methyl-4-phenylpyridinium] |  | almost completely absent | 
COc1ccc2[nH]c([S+]([O-])Cc3ncc(C)c(OC)c3C)nc2c1 (stereo not drawn) [Omeprazole] | 22 ± 2.2 |  | 
COc1ccnc(C[S+]([O-])c2nc3ccc(OC(F)F)cc3[nH]2)c1OC (stereo not drawn) [Pantoprazole] | 22.9 ± 5.2 |  | activated
COCCCOc1ccnc(C[S+]([O-])c2nc3ccccc3[nH]2)c1C (stereo not drawn) [Rabeprazole] | 3 ± 0.8 |  | activated
COc1ccc2[nH]c([S+]([O-])Cc3ncc(C)c(OC)c3C)nc2n1 (stereo not drawn) [Tenatoprazole] | 14.7 ± 2.4 |  | activated
